Experiment: xn = mol fraction of the nth substance listed
Conditions: 100 kPa, Liquid; for viscosity: Concentric cylinders viscometry; for mass density: Vibrating tube method

CCCCCCCCCCO [decan-1-ol] + CCCCOC(C)=O
Conditions	mass density [kg/m3]	viscosity [mPa·s]
293.15 K, x2 = 0	829.5	14.42
293.15 K, x2 = 0.0809	832	12.8
293.15 K, x2 = 0.1599	834.6	11.41
293.15 K, x2 = 0.2401	837.6	10.07
293.15 K, x2 = 0.3499	842	8.41
293.15 K, x2 = 0.4401	846	7.18
293.15 K, x2 = 0.5598	851.9	5.67
293.15 K, x2 = 0.6499	856.8	4.62
293.15 K, x2 = 0.7401	862.3	3.6
293.15 K, x2 = 0.8499	869.6	2.38
293.15 K, x2 = 0.9399	876.2	1.38
298.15 K, x2 = 0	826.1	11.8
298.15 K, x2 = 0.0809	828.4	10.44
298.15 K, x2 = 0.1599	830.9	9.29
298.15 K, x2 = 0.2401	833.7	8.2
298.15 K, x2 = 0.3499	838	6.86
298.15 K, x2 = 0.4401	841.8	5.87
298.15 K, x2 = 0.5598	847.5	4.61
298.15 K, x2 = 0.6499	852.3	3.75
298.15 K, x2 = 0.7401	857.5	2.94
298.15 K, x2 = 0.8499	864.7	1.97
298.15 K, x2 = 0.9399	871.1	1.19
303.15 K, x2 = 0	822.7	9.76
303.15 K, x2 = 0.0809	824.8	8.61
303.15 K, x2 = 0.1599	827.1	7.62
303.15 K, x2 = 0.2401	829.7	6.71
303.15 K, x2 = 0.3499	833.8	5.59
303.15 K, x2 = 0.4401	837.5	4.78
303.15 K, x2 = 0.5598	843	3.75
303.15 K, x2 = 0.6499	847.6	3.06
303.15 K, x2 = 0.7401	852.7	2.4
303.15 K, x2 = 0.8499	859.6	1.64
303.15 K, x2 = 0.9399	866	1.04
308.15 K, x2 = 0	819.3	8.14
308.15 K, x2 = 0.0809	821.2	7.15
308.15 K, x2 = 0.1599	823.4	6.31
308.15 K, x2 = 0.2401	825.8	5.54
308.15 K, x2 = 0.3499	829.6	4.61
308.15 K, x2 = 0.4401	833.1	3.93
308.15 K, x2 = 0.5598	838.5	3.11
308.15 K, x2 = 0.6499	842.9	2.54
308.15 K, x2 = 0.7401	847.9	2.02
308.15 K, x2 = 0.8499	854.6	1.4
308.15 K, x2 = 0.9399	860.8	0.9
313.15 K, x2 = 0	815.8	6.84
313.15 K, x2 = 0.0809	817.3	5.99
313.15 K, x2 = 0.1599	819.2	5.27
313.15 K, x2 = 0.2401	821.4	4.62
313.15 K, x2 = 0.3499	824.9	3.83
313.15 K, x2 = 0.4401	828.2	3.28
313.15 K, x2 = 0.5598	833.2	2.59
313.15 K, x2 = 0.6499	837.5	2.15
313.15 K, x2 = 0.7401	842.4	1.71
313.15 K, x2 = 0.8499	849.1	1.22
313.15 K, x2 = 0.9399	855.3	0.81
318.15 K, x2 = 0	812.4	5.8
318.15 K, x2 = 0.0809	813.7	5.06
318.15 K, x2 = 0.1599	815.3	4.45
318.15 K, x2 = 0.2401	817.2	3.89
318.15 K, x2 = 0.3499	820.3	3.22
318.15 K, x2 = 0.4401	823.4	2.75
318.15 K, x2 = 0.5598	828.2	2.18
318.15 K, x2 = 0.6499	832.4	1.8
318.15 K, x2 = 0.7401	837.2	1.45
318.15 K, x2 = 0.8499	843.9	1.05
318.15 K, x2 = 0.9399	850.2	0.73
323.15 K, x2 = 0	808.9	4.96
323.15 K, x2 = 0.0809	809.9	4.31
323.15 K, x2 = 0.1599	811.3	3.79
323.15 K, x2 = 0.2401	813	3.3
323.15 K, x2 = 0.3499	815.9	2.72
323.15 K, x2 = 0.4401	818.8	2.32
323.15 K, x2 = 0.5598	823.4	1.84
323.15 K, x2 = 0.6499	827.3	1.53
323.15 K, x2 = 0.7401	832.1	1.25
323.15 K, x2 = 0.8499	838.7	0.92
323.15 K, x2 = 0.9399	844.9	0.66

CCCCOC(C)=O [butyl ethanoate] + CCCCCCCCO
Conditions	mass density [kg/m3]	viscosity [mPa·s]
293.15 K, x1 = 0.0809	828.3	8.07
293.15 K, x1 = 0.1595	831.8	7.17
293.15 K, x1 = 0.2399	835.5	6.32
293.15 K, x1 = 0.3499	840.9	5.29
293.15 K, x1 = 0.4399	845.6	4.54
293.15 K, x1 = 0.5626	852.5	3.59
293.15 K, x1 = 0.6499	857.6	2.97
293.15 K, x1 = 0.7401	863.2	2.37
293.15 K, x1 = 0.8499	870.4	1.69
293.15 K, x1 = 0.9395	876.6	1.12
293.15 K, x1 = 1	881.1	0.732
298.15 K, x1 = 0.0809	824.6	6.69
298.15 K, x1 = 0.1595	827.9	5.9
298.15 K, x1 = 0.2399	831.5	5.19
298.15 K, x1 = 0.3499	836.7	4.32
298.15 K, x1 = 0.4399	841.3	3.7
298.15 K, x1 = 0.5626	847.9	2.93
298.15 K, x1 = 0.6499	853	2.43
298.15 K, x1 = 0.7401	858.4	1.96
298.15 K, x1 = 0.8499	865.5	1.43
298.15 K, x1 = 0.9395	871.6	0.99
298.15 K, x1 = 1	876	0.677
303.15 K, x1 = 0.0809	820.8	5.59
303.15 K, x1 = 0.1595	823.9	4.92
303.15 K, x1 = 0.2399	827.4	4.3
303.15 K, x1 = 0.3499	832.4	3.57
303.15 K, x1 = 0.4399	836.8	3.06
303.15 K, x1 = 0.5626	843.2	2.42
303.15 K, x1 = 0.6499	848.1	2.01
303.15 K, x1 = 0.7401	853.4	1.63
303.15 K, x1 = 0.8499	860.3	1.22
303.15 K, x1 = 0.9395	866.4	0.88
303.15 K, x1 = 1	870.9	0.628
308.15 K, x1 = 0.0809	817.1	4.72
308.15 K, x1 = 0.1595	820.1	4.15
308.15 K, x1 = 0.2399	823.4	3.61
308.15 K, x1 = 0.3499	828.1	2.99
308.15 K, x1 = 0.4399	832.3	2.56
308.15 K, x1 = 0.5626	838.5	2.05
308.15 K, x1 = 0.6499	843.2	1.73
308.15 K, x1 = 0.7401	848.4	1.42
308.15 K, x1 = 0.8499	855.3	1.08
308.15 K, x1 = 0.9395	861.2	0.79
308.15 K, x1 = 1	865.7	0.585
313.15 K, x1 = 0.0809	813.3	4.01
313.15 K, x1 = 0.1595	815.9	3.52
313.15 K, x1 = 0.2399	818.9	3.06
313.15 K, x1 = 0.3499	823.3	2.53
313.15 K, x1 = 0.4399	827.3	2.17
313.15 K, x1 = 0.5626	833.3	1.75
313.15 K, x1 = 0.6499	838	1.48
313.15 K, x1 = 0.7401	843.1	1.24
313.15 K, x1 = 0.8499	849.9	0.95
313.15 K, x1 = 0.9395	855.8	0.71
313.15 K, x1 = 1	860.5	0.546
318.15 K, x1 = 0.0809	809.4	3.44
318.15 K, x1 = 0.1595	811.9	3.01
318.15 K, x1 = 0.2399	814.6	2.62
318.15 K, x1 = 0.3499	818.8	2.17
318.15 K, x1 = 0.4399	822.6	1.87
318.15 K, x1 = 0.5626	828.4	1.51
318.15 K, x1 = 0.6499	832.9	1.3
318.15 K, x1 = 0.7401	838	1.08
318.15 K, x1 = 0.8499	844.7	0.84
318.15 K, x1 = 0.9395	850.7	0.65
318.15 K, x1 = 1	855.3	0.512
323.15 K, x1 = 0.0809	805.6	2.97
323.15 K, x1 = 0.1595	807.8	2.6
323.15 K, x1 = 0.2399	810.4	2.26
323.15 K, x1 = 0.3499	814.3	1.86
323.15 K, x1 = 0.4399	817.9	1.6
323.15 K, x1 = 0.5626	823.5	1.3
323.15 K, x1 = 0.6499	828	1.12
323.15 K, x1 = 0.7401	832.9	0.96
323.15 K, x1 = 0.8499	839.5	0.76
323.15 K, x1 = 0.9395	845.5	0.6
323.15 K, x1 = 1	850.1	0.485

Source: the NIST ThermoML archive (doi:10.1021/acs.jced.8b00524)
